Tests used:
[1] = target: T1, ATP-binding cassette sub-family C member 2 (Homo sapiens, UniProt Q92887); assay: TP_TRANSPORTER: increase cell accumulation of cyclosporine-A in hMRP2-expressing MDCK2 cells; format: functional, cell-based; details: dog, mdck-ii
[2] = target: T1, ATP-binding cassette sub-family C member 2; assay: TP_TRANSPORTER: increase cell accumulation of erythromycin in hMRP2-expressing MDCK2 cells; format: functional, cell-based; details: dog, mdck-ii

T1 sequence (Q92887 whole entry): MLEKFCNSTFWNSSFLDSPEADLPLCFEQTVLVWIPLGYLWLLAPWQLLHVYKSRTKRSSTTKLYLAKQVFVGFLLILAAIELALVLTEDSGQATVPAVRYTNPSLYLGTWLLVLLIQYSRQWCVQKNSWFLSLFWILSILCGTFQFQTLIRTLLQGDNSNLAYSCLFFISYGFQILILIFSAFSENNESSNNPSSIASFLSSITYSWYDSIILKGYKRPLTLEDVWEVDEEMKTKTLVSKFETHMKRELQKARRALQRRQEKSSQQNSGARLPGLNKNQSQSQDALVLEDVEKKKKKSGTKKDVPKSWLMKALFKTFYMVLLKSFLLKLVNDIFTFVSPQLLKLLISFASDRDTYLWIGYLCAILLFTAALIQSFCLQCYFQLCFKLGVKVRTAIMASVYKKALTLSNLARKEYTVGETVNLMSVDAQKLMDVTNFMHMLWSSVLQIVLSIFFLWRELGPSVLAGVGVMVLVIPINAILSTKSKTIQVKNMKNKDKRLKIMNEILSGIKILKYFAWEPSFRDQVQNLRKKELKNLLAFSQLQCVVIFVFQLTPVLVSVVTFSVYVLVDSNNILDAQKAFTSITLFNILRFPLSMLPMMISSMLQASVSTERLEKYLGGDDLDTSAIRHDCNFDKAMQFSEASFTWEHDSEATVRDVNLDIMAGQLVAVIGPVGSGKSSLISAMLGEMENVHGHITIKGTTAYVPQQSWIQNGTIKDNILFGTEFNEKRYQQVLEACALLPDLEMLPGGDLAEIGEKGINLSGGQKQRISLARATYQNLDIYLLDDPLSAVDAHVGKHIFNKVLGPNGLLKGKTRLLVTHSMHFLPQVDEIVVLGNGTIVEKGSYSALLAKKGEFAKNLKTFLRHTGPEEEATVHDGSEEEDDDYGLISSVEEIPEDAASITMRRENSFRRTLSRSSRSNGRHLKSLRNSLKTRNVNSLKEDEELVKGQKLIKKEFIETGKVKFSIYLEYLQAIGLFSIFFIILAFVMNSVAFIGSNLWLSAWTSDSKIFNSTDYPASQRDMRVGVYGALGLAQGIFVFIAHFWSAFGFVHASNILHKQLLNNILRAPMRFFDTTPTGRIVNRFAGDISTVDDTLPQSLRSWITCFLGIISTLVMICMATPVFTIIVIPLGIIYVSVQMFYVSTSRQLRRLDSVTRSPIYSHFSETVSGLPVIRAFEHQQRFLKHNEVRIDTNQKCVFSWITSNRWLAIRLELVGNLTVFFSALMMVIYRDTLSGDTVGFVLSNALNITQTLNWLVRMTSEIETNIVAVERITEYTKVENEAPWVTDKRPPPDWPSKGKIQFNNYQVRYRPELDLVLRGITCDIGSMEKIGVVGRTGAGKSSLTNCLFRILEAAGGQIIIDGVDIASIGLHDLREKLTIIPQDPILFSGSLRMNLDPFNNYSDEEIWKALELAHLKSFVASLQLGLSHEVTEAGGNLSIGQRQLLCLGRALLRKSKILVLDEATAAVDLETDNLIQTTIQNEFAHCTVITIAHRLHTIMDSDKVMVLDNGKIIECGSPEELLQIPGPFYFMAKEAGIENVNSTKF

CN(C)C(=O)CCSC(SCCC(=O)O)c1cccc(/C=C/c2ccc3ccc(Cl)cc3n2)c1 (configuration not stated) [MK-571]
Activity [1]: 156% | Activity [2]: 195%

Reference: ChEMBL document CHEMBL2074519, “Molecular evidence and functional expression of a novel drug efflux pump (ABCC2) in human corneal epithelium and rabbit cornea and its role in ocular drug efflux” (Int J Pharm, 2006)
